From patent publication US8748389B2, “Treating cancer” (Theryte Limited, priority 2004, dated 2014) come the findings set out here.

Data set [1] has as its system short term primary culture of human fibroblasts. In words: Experiment 2 further experiment, cells viewed under phase contrast microscopy. The class given is cell-based. The settings on record: for appearance of cells: 2.5 mM peptide, 2 days plus a further 7 days, FIG. 14; for cytotoxicity to cultured primary cultures of normal human cells: conclusion of Experiment 2. The procedure:
In a further experiment, using a different batch of synthesized peptide, RT112 cells (a human bladder cancer cell line), HT29 cells (a human colon cancer cell line) and MGHU cells (a human bladder cancer cell line) were plated as described above. In parallel, a short term primary culture of human fibroblasts was plated in 48 well plates. After 24 h, the tissue culture medium was removed from each well and replaced with Hams F12 complete tissue culture medium (without foetal calf serum) supplemented with either 2.5 mM SEQ ID NO:1 or 2.5 mM SEQ ID NO:4. After culturing for 2 days, foetal calf serum was added to a concentration of 10%. The cells were then cultured for a further 7 days and viewed under phase contrast microscopy.
These peptides are not cytotoxic to cultured primary cultures of normal human cells.

The test system of a further data set is H441 cells. Kind of data set: % viability by visual observation under phase contrast microscopy, 48 well, Experiment 2 first experiment. The class given is cell-based, human. The procedure: (§1) In a first experiment, MGHU-1 cells (a human bladder cancer cell line), were plated in 48 well tissue culture dishes in 0.2 ml complete Hams F12 tissue culture medium supplemented with 10% foetal calf serum. SKMEL-2 cells (a human malignant melanoma cell line), HX34 cells (a human malignant melanoma cell line) and H441 cells (a human lung cancer cell line) were plated under identical conditions. The cells were incubated at 37° C. in an atmosphere of 5% CO2.
(§2) After 24 h, the culture medium was then removed from each well and replaced by Hams F12 complete tissue culture medium (without foetal calf serum). The culture medium added to each well was supplemented with a peptide having the sequence set out in SEQ ID NO:1, SEQ ID NO:2 or SEQ ID NO:3 at a concentration of either 0.5, 1.0 or 5.0 mM in such a way that each cell line was exposed to each peptide at each concentration.
(§3) The cells were then cultured for two days. Foetal calf serum was then added to a final concentration of 10%, and the cells were left for a further 5 days. The % viability of the cells in each well was calculated by visual observation under phase contrast microscopy. The effect of the peptides having the amino acid sequences set out in SEQ ID NO:1 and SEQ ID NO:3 on the viability of the SK MeI-2, MGHU-1, HX34 and H441 cell lines is shown in FIG. 12. […] Where the concentration of SEQ ID NO:1 was 1.0 mM, 100% of MGHU-1 cells were killed. The viability of the other cell lines was not affected.

Another data set deals with HX34 cells. Described as above. The class given is cell-based, human. How it is done:
as §1, §2, §3

For a further data set, the system named is MGHU-1 cells. The description is as above. It counts as cell-based, human. The procedure: as §1, §2, §3
In the next data set the test system is SKMEL-2 cells. The description is as above. The class given is cell-based, human. The procedure: as §1, §2, §3
Data set [2] concerns Normal non-cancerous fibroblasts. Kind of data set: Experiments 3 and 4, 96 well plates, viability by phase contrast microscopy. The class given is cell-based. The procedure: (§4) Normal non-cancerous fibroblasts and cancer cells were exposed to the linear hexamer PRGPRP SEQ ID NO: 5 in 96 micro well plates using the same protocol as for SEQ. ID NO: 1 as previously described. The percent viability of the cells in each well was calculated by visual observation under phase contrast microscopy as previously described.
(§5) In order to define structure/function relationships different peptides were constructed SEQ ID NOS 5-16. Normal non-cancerous fibroblasts and cancer cells were exposed to 5 mM of these peptides in 96 well plates as previously described. The sequence of these peptides is listed below. Results were scored at 21 days.

Another data set concerns cancer cells. The description is as above. The following applies: summary statement. The class given is cell-based. The procedure:
as §4, §5

Data set [3] relates to normal non cancerous fibroblasts. In words: Experiment 6, cell growth by daily phase-contrast microscopy, 96 well plates. It counts as cell-based. How it is done: (§6) Cancer cells and non-cancerous fibroblasts were separately seeded at 10^2 to 10^4 cells in 200 μl of Hams F12 tissue culture medium plus 10% fetal calf serum in 96 well plates and exposed to varying concentrations of a peptide having an amino acid sequence set out in SEQ ID NO: 17 ranging from 5.0 μM to 100 μM. Cell growth was studied by daily phase-contrast microscopy over 25 days.

For data set [4], the system named is MGHU-1 bladder cancer cells. The description is as above. The class given is cell-based, human. How it is done:
as §6

The test system of data set [5] is non-cancerous fibroblasts. In words: Subsequent experiments testing cancerous and non-cancerous cell lines. It counts as cell-based.
Where [6] appears, read: visual observation of cell density and viability.
The mark [7] stands for this setting: any concentration (0.5, 1.0 or 5.0 mM), day 7.

Where a SMILES comes first, the peptide text is derived from it.

Take `CC(C)[C@H](NC(=O)[C@H](CCCNC(=N)N)NC(=O)[C@H](Cc1ccccc1)NC(=O)[C@@H]1CCCN1C(=O)CNC(=O)[C@@H]1CCCN1)C(=O)N1CCC[C@H]1C(=O)N[C@@H](CCC(N)=O)C(=O)N1CCC[C@H]1C(=O)N[C@@H](CCCNC(=N)N)C(=O)O` [SEQ ID NO:4, reference compound] (H-PGPFRVPQPR-OH): the appearance of cells entry in data set [1] is reported as “appear to be healthy”.

`CC(C)[C@H](NC(=O)[C@@H]1CCCN1C(=O)[C@H](CCCNC(=N)N)NC(=O)[C@@H](NC(=O)CNC(=O)[C@H](CCCNC(=N)N)NC(=O)[C@@H]1CCCN1C(=O)[C@@H](NC(=O)[C@@H](N)Cc1ccccc1)[C@@H](C)O)[C@@H](C)O)C(=O)N[C@@H](CCC(N)=O)C(=O)O` [SEQ ID NO:2] (H-FTPRGTRPVQ-OH; N-terminus and C-terminus assumed): the cytotoxicity result in the data set on H441 cells (setting [6]), in the data set with HX34 cells (setting [6]), in the data set with MGHU-1 cells (setting [6]) and in the data set with SKMEL-2 cells (setting [6]) was “cytotoxic” each time. In addition, the “cytotoxicity compared with SEQ ID NO:1” value in the data set with H441 cells (setting [6]), in the data set with HX34 cells (setting [6]), in the data set on MGHU-1 cells (setting [6]) and in the data set with SKMEL-2 cells (setting [6]) was “less cytotoxic” each time. The “cytotoxicity to cultured primary cultures of normal human cells” value in data set [1] is given as “not cytotoxic”.

Take `N=C(N)NCCC[C@H](NC(=O)[C@@H]1CCCN1)C(=O)NCC(=O)N1CCC[C@H]1C(=O)N[C@@H](CCCNC(=N)N)C(=O)N1CCC[C@H]1C(=O)O` [SEQ ID NO: 5, PRGPRP] (H-PRGPRP-OH): the state of fibroblasts entry in data set [2] (21 days and beyond) is listed as “remained healthy”. Besides, the “growth of non-cancerous cells tested” value in [2] (summary statement) is “non-inhibitory”. Moreover, the “cytotoxicity to cancer cells tested” value with cancer cells is reported as “cytotoxic”.

As to “ATTEGTETVQ [SEQ ID NO:3, reference compound]”, the viability result with H441 cells (setting [7]), in the data set on HX34 cells (setting [7]), in the data set on MGHU-1 cells (setting [7]) and with SKMEL-2 cells (setting [7]) was “did not affect viability” each time.

“cyclo-[PRGPRPVPRGPRPVPRGPRPV] (cyclic) [SEQ ID NO: 17]”: the stimulation of fibroblasts entry in [3] (10 days exposure, 10 μM, FIG. 18) is recorded as “marked non-cancerous fibroblast stimulation”; in data set [3] (between 5 and 10 days after exposure, 5.0 μM to 100 μM) it was “Marked stimulation”. Also, the cell morphology entry in data set [4] (after 20 days exposure, FIG. 19) was “marked loss of normal cell morphology”. Moreover, the “cell morphology of cancerous cells” value in data set [4] (no complete detachment of dead cells from the plastic surface) was “loss of clear cell morphology”.

In the case of `CC(C)[C@H](NC(=O)[C@@H]1CCCN1C(=O)[C@H](CCCNC(=N)N)NC(=O)[C@@H]1CCCN1C(=O)CNC(=O)[C@H](CCCNC(=N)N)NC(=O)[C@@H]1CCCN1C(=O)[C@@H]1CCCN1C(=O)[C@@H](N)Cc1ccccc1)C(=O)N[C@@H](CCC(N)=O)C(=O)O` [SEQ ID NO:1] (H-FPPRGPRPVQ-OH; N-terminus and C-terminus assumed), the appearance of cells result in data set [1] was “appear to be healthy”. Besides, in data set [1], the “cytotoxicity to cultured primary cultures of normal human cells” value is “not cytotoxic”. Moreover, the cell killing entry in data set [5] (between days 20 and 25) was “specific killing of cancerous cells and not non-cancerous fibroblasts”; in [5] (within the first seven days, cells then recovered) it was “non specific killing”.
